What was measured:
[1] = test system: chorioallantoic membrane (CAM) neovascular formation induced by VEGF; assay: CAM analysis of suppressive effect on angiogenesis, neovascular formation induced by VEGF; assay type: in vivo, chicken; conditions: VEGF 20 ng/CAM; for suppression of neovascular formation caused by VEGF (number of blood vessel branches): various concentrations of compound, three days after treatment
Description: (§1) In order to confirm an anti-angiogenic effect of the macrolactin compounds in in vivo test, chorioallantoic membrane (CAM) analysis was carried out (Nguyen M. et al., Microvascular Res., 47, pp. 31-40, 1994). 6±1 fertile eggs were used per group.
(§2) Fertile chicken eggs were cultured while maintaining the temperature of 37° C. and the relative humidity of 55%. On the third day of culture, a first small hole was made in the air sac part with a hypodermic needle (Green Cross Medical Corporation, Korea), and a second hole was made in the plat part of the fertile eggs to make a window.
(§3) The CAM was separated from the eggshell by expelling the air through the first hole in the air sac, and then the part was cut with a grinding wheel (Multipro 395JA, Dremel, Mexico) to make a window.
(§4) A Whatman filter disc #1 (Whatman, USA) was treated with 3 mg/ml of cortisone acetate and dried. The filter disc was treated with 10 μl of VEGF, TNF-α or IL-8 (20 ng/CAM).
(§5) Through the pre-made window, the filter disc was put on blood vessel, and then treated with various concentrations of MA, MMA or SMA which was dissolved in DMSO and diluted with PBS.
Three days after treatment, the CAM part with the filter disc was separated and washed with phosphate buffer solution. The photographs were taken by using a stereomicroscope (Leica, Wetzlar, Germany) and Image-Pro Plus software (Media Cybernetics; Silver Spring, Md., USA) to determine the number of bleed vessel branches and to analyze the data.
All data were represented as mean±standard error of mean, and the statistical analysis was done as one-way ANOVA by using GraphPad Prism 4 Software (San Diego, Calif., USA). Multiple comparisons between the differences of each group were made by using the NK (Newman-Keuls) method. When p-value was less than 0.05, the data were regarded as statistically significant.

[2] = test system: chorioallantoic membrane (CAM) neovascular formation induced by TNF-α; assay: CAM analysis of suppressive effect on angiogenesis, neovascular formation induced by TNF-α; assay type: in vivo, chicken; conditions: TNF-α 20 ng/CAM; various concentrations of compound; three days after treatment
Description: as §1, §2, §3, §4, §5
(§6) Three days after treatment, the CAM part with the filter disc was separated and washed with phosphate buffer solution. […]

[3] = test system: Human fibrosarcoma cells (HT-1080); assay: Infiltration test of fibrosarcoma cells (suppressive effect on metastasis of cancer), transwell with Matrigel; assay type: cell-based; conditions: 18 hours
Description: Human fibrosarcoma cells (HT-1080) were cultured in DMEM containing 10% fetal bovine serum (FBS) and 1% penicillin/streptomycin (PS) under the condition of 37° C. and 5% CO2. When the cells grew to fill 80% or more of the culture flask, they were subcultured at a ratio of 1:3 and used in this test. In order to confirm the suppressive effect of the macrolactin compounds on metastasis of cancer in in vitro experiments, an infiltration test of fibrosarcoma cells was carried out by using a 24-well transwell attached with a polycarbonate filter of […] pore size. Firstly, the bottom side of the filter was coated with Collagen Type I (0.5 mg/ml), and then the upper side of the filter was coated with Matrigel (1.5 mg/ml). After coating, the lower part of the insert was filled with a medium containing 5% FBS, and the upper part was filled with serum-free medium human fibrosarcoma cells (HT-1080) which were incubated for 18 hours in a cell incubator. The human fibrosarcoma cells infiltrated into the bottom side of the filter were fixed with methanol and then dyed with hematoxylin and eosin. The infiltrated cells were observed under a microscope, and 3 parts were randomly selected from each filter to take photographs and determine the number of cells (Kim, M. S. et al., Cancer Res., 63, pp. 5454-5461, 2003; Park, B. C. et al., Eur. J. Pharm., 567, pp. 193-197, 2007).

[4] = test system: chorioallantoic membrane (CAM) neovascular formation induced by IL-8; assay: CAM analysis of suppressive effect on angiogenesis, neovascular formation induced by IL-8; assay type: in vivo, chicken; conditions: IL-8 20 ng/CAM; various concentrations of compound; three days after treatment
Description: as §1, §2, §3, §4, §5, §6

Compound	suppression of neovascular formation caused by VEGF (number of blood vessel branches) [1]	suppression of neovascular formation caused by TNF-α (number of blood vessel branches) [2]	dose dependence of suppression of metastasis (infiltration) of fibrosarcoma cells induced by 5% FBS [3]	suppression of neovascular formation caused by IL-8 (number of blood vessel branches) [4]	dose dependence of suppression of neovascular formation caused by VEGF ([1]; various concentrations)	suppressive effect on metastasis (infiltration) of fibrosarcoma cells induced by 5% FBS ([3]; compound 1 μM)	suppressive effect on metastasis (infiltration) of fibrosarcoma cells induced by 5% FBS ([3]; compound 5 μM)
CC1CCC/C=C/C=C/[C@H](O)C[C@@H](O)C/C=C\C=C\[C@@H](O)C/C=C/C=C\C(=O)O1 (stereo partly drawn) [MA, macrolactin A]	strongly suppressed	strongly suppressed	in a dose-dependent way	strongly suppressed			
C[C@@H]1CCC/C=C/C=C/[C@H](O)C[C@@H](O)C/C=C\C=C\[C@@H](OC(=O)CCC(=O)O)C/C=C/C=C\C(=O)O1 [SMA, 7-O-succinyl macrolactin A]	strongly suppressed	strongly suppressed	in a dose-dependent way	strongly suppressed	suppressed neovascular formation in a dose-dependent way	significant suppressive effect	superior suppressive effect on the metastasis comparable to that of batimastat
C[C@@H]1CCC/C=C/C=C/[C@H](O)C[C@@H](O)C/C=C\C=C\[C@@H](OC(=O)CC(=O)O)C/C=C/C=C\C(=O)O1 [MMA, 7-O-malonyl macrolactin A]	strongly suppressed						

Reference: patent US8940788B2, “Anti-angiogenic composition containing macrolactin A and a derivative thereof as active ingredients” (Daewoo Pharmaceutical Ind. Co., Ltd., priority 2010, dated 2015)
